In data set [1] the test system is HCV replicon RNA (GenBank Accession No. AJ242654). The data set is described as follows: HCV Replicon Assay (replicon RNA reduction and/or Fluc reporter signal). The class given is cell-based, Hepatitis C virus. As to conditions: Hepatitis C virus, 72 h, replicon-containing cells cultured with test compound for up to 3 days. In a few lines:
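Bicistronic replicon-containing cells cultured with compound for up to 3 days, with interferon as positive control. Inhibition quantified by replicon RNA reduction and/or Fluc reporter signal; IC50 values generally derived from replicon RNA reduction.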
(In general: In antiviral work, replicon cells carry a viral genome segment that copies itself.)

As to `CCc1cnc2c(c1)c(C#N)c(-c1ccc(S(=O)(=O)NC3CCC3)cn1)n2C1CCC1` [Cpd 194, 6-(3-cyano-1-cyclobutyl-5-ethyl-1H-pyrrolo[2,3-b]pyridin-2-yl)-N-cyclobutylpyridine-3-sulfonamide], the melting point fell in the range of 168 to 177 °C. In data set [1], this molecule registered an IC50 of less than 0.5 µM.
The corresponding values for `CCc1cnc2c(c1)c(C#N)c(-c1ccc(S(=O)(=O)NC(C)C)nc1)n2C1CCC1` [Cpd 195, 5-(3-cyano-1-cyclobutyl-5-ethyl-1H-pyrrolo[2,3-b]pyridin-2-yl)-N-(propan-2-yl)pyridine-2-sulfonamide] are 195 to 202 °C and less than 0.5 µM.
The corresponding values for `CCc1cnc2c(c1)c(C#N)c(-c1ncc(S(=O)(=O)NC(C)C)cn1)n2C1CCC1` [Cpd 196, 2-(3-cyano-1-cyclobutyl-5-ethyl-1H-pyrrolo[2,3-b]pyridin-2-yl)-N-(propan-2-yl)pyrimidine-5-sulfonamide] are 170 to 178 °C and less than 0.5 µM.
`C[C@@H](NS(=O)(=O)c1ccc(-c2c(C#N)c3cc(OC(F)F)cnc3n2C2CCC2)nc1)C(F)(F)F` [Cpd 197, 6-[3-cyano-1-cyclobutyl-5-(difluoromethoxy)-1H-pyrrolo[2,3-b]pyridin-2-yl]-N-[(2R)-1,1,1-trifluoropropan-2-yl]pyridine-3-sulfonamide] showed a melting point of 149 to 151 °C. The IC50 in data set [1] was less than 0.5 µM.
In the same order, the values of `C[C@H](NS(=O)(=O)c1ccc(-c2c(C#N)c3cc(OC(F)F)cnc3n2C2CCC2)cc1)C(F)(F)F` [Cpd 198, 4-[3-cyano-1-cyclobutyl-5-(difluoromethoxy)-1H-pyrrolo[2,3-b]pyridin-2-yl]-N-[(2S)-1,1,1-trifluoropropan-2-yl]benzenesulfonamide] are 155 to 156 °C and 0.5 to 2 µM.
The molecule `C[C@@H](NS(=O)(=O)c1ccc(-c2c(C#N)c3cc(OC(F)F)cnc3n2C2CCC2)cc1)C(F)(F)F` [Cpd 199, 4-[3-cyano-1-cyclobutyl-5-(difluoromethoxy)-1H-pyrrolo[2,3-b]pyridin-2-yl]-N-[(2R)-1,1,1-trifluoropropan-2-yl]benzenesulfonamide] displayed a melting point of 199 to 200 °C. In data set [1], the IC50 was less than 0.5 µM.
For the molecule `CC(C)(NS(=O)(=O)c1ccc(-c2c(C#N)c3cc(OC(F)F)cnc3n2C2CCC2)nc1)C(F)(F)F` [Cpd 201, 6-[3-cyano-1-cyclobutyl-5-(difluoromethoxy)-1H-pyrrolo[2,3-b]pyridin-2-yl]-N-(1,1,1-trifluoro-2-methylpropan-2-yl)pyridine-3-sulfonamide], the melting point was in the range of 168 to 169 °C. In data set [1], this molecule yielded an IC50 of less than 0.5 µM.
The corresponding values for `CCOc1cnc2c(c1)c(C#N)c(-c1ccc(S(=O)(=O)N[C@@H](C)C(F)(F)F)cn1)n2C1CCC1` [Cpd 202, 6-(3-cyano-1-cyclobutyl-5-ethoxy-1H-pyrrolo[2,3-b]pyridin-2-yl)-N-[(2S)-1,1,1-trifluoropropan-2-yl]pyridine-3-sulfonamide] are 181 to 182 °C and less than 0.5 µM.
In turn, `CCOc1cnc2c(c1)c(C#N)c(-c1ccc(S(=O)(=O)N[C@H](C)C(F)(F)F)cn1)n2C1CCC1` [Cpd 203, 6-(3-cyano-1-cyclobutyl-5-ethoxy-1H-pyrrolo[2,3-b]pyridin-2-yl)-N-[(2R)-1,1,1-trifluoropropan-2-yl]pyridine-3-sulfonamide] gave a melting point of 180 to 181 °C. Moreover, in data set [1], the IC50 is less than 0.5 µM.
For `CCCOc1cnc2c(c1)c(C#N)c(-c1ccc(S(=O)(=O)N[C@@H](C)C(F)(F)F)cn1)n2C1CCC1` [Cpd 204, 6-(3-cyano-1-cyclobutyl-5-propoxy-1H-pyrrolo[2,3-b]pyridin-2-yl)-N-[(2S)-1,1,1-trifluoropropan-2-yl]pyridine-3-sulfonamide], the melting point was 170 to 171 °C. Further, the IC50 in data set [1] was less than 0.5 µM.
Consider `CCCOc1cnc2c(c1)c(C#N)c(-c1ccc(S(=O)(=O)N[C@H](C)C(F)(F)F)cn1)n2C1CCC1` [Cpd 205, 6-(3-cyano-1-cyclobutyl-5-propoxy-1H-pyrrolo[2,3-b]pyridin-2-yl)-N-[(2R)-1,1,1-trifluoropropan-2-yl]pyridine-3-sulfonamide], for which the melting point was in the range of 169 to 170 °C. In data set [1], this molecule returned an IC50 of less than 0.5 µM.
Consider `Cc1cnc2c(C#N)c(-c3ccc(S(=O)(=O)N[C@@H](C)C(F)(F)F)cn3)n(C3CCC3)c2c1` [Cpd 206, 6-(3-cyano-1-cyclobutyl-6-methyl-1H-pyrrolo[3,2-b]pyridin-2-yl)-N-[(2S)-1,1,1-trifluoropropan-2-yl]pyridine-3-sulfonamide], for which the melting point was in the range of 217 to 218 °C. The molecule further gave an IC50 in data set [1] of 0.5 to 2 µM.
The corresponding values for `Cc1cnc2c(C#N)c(-c3ccc(S(=O)(=O)N[C@H](C)C(F)(F)F)cn3)n(C3CCC3)c2c1` [Cpd 207, 6-(3-cyano-1-cyclobutyl-6-methyl-1H-pyrrolo[3,2-b]pyridin-2-yl)-N-[(2R)-1,1,1-trifluoropropan-2-yl]pyridine-3-sulfonamide] are 207 to 209 °C and 0.5 to 2 µM.
With `Cc1cnc2c(C#N)c(-c3ccc(S(=O)(=O)NC4(C(F)(F)F)CC4)cn3)n(C3CCC3)c2c1` [Cpd 208, 6-(3-cyano-1-cyclobutyl-6-methyl-1H-pyrrolo[3,2-b]pyridin-2-yl)-N-[1-(trifluoromethyl)cyclopropyl]pyridine-3-sulfonamide], the melting point fell in the range of 248 to 249 °C. Further, in data set [1], the IC50 is less than 0.5 µM.
In the same order, the values of `Cc1cnc2c(C#N)c(-c3ccc(S(=O)(=O)NC(C)(C)C(F)(F)F)cn3)n(C3CCC3)c2c1` [Cpd 209, 6-(3-cyano-1-cyclobutyl-6-methyl-1H-pyrrolo[3,2-b]pyridin-2-yl)-N-(1,1,1-trifluoro-2-methylpropan-2-yl)pyridine-3-sulfonamide] are 238 to 240 °C and less than 0.5 µM.
In the same order, the values of `Cc1cnc2c(C#N)c(-c3ccc(S(=O)(=O)NC4(C)CC4)cn3)n(C3CCC3)c2c1` [Cpd 210, 6-(3-cyano-1-cyclobutyl-6-methyl-1H-pyrrolo[3,2-b]pyridin-2-yl)-N-(1-methylcyclopropyl)pyridine-3-sulfonamide] are 187 to 188 °C and less than 0.5 µM.
In the case of `Cc1cnc2c(C#N)c(-c3ccc(S(=O)(=O)NC(C)(C)C)cn3)n(C3CCC3)c2c1` [Cpd 211, N-tert-butyl-6-(3-cyano-1-cyclobutyl-6-methyl-1H-pyrrolo[3,2-b]pyridin-2-yl)pyridine-3-sulfonamide], the melting point was in the range of 227 to 229 °C. This molecule also had an IC50 in data set [1] of less than 0.5 µM.
In the same order, the values of `Cc1cnc2c(C#N)c(-c3ccc(S(=O)(=O)NC(CF)CF)cn3)n(C3CCC3)c2c1` [Cpd 212, 6-(3-cyano-1-cyclobutyl-6-methyl-1H-pyrrolo[3,2-b]pyridin-2-yl)-N-(1,3-difluoropropan-2-yl)pyridine-3-sulfonamide] are 219 to 221 °C and less than 0.5 µM.
In the same order, the values of `Cc1cnc2c(C#N)c(-c3ncc(S(=O)(=O)NC(CF)CF)cn3)n(C3CCC3)c2c1` [Cpd 213, 2-(3-cyano-1-cyclobutyl-6-methyl-1H-pyrrolo[3,2-b]pyridin-2-yl)-N-(1,3-difluoropropan-2-yl)pyrimidine-5-sulfonamide] are 269 to 271 °C and less than 0.5 µM.
In the same order, the values of `Cc1cnc2c(C#N)c(-c3ncc(S(=O)(=O)NC(C)C)cn3)n(C3CCC3)c2c1` [Cpd 214, 2-(3-cyano-1-cyclobutyl-6-methyl-1H-pyrrolo[3,2-b]pyridin-2-yl)-N-(propan-2-yl)pyrimidine-5-sulfonamide] are 278 to 280 °C and less than 0.5 µM.
Molecule `Cc1cnc2c(C#N)c(-c3ncc(S(=O)(=O)N[C@@H](C)C(F)(F)F)cn3)n(C3CCC3)c2c1` [Cpd 215, 2-(3-cyano-1-cyclobutyl-6-methyl-1H-pyrrolo[3,2-b]pyridin-2-yl)-N-[(2S)-1,1,1-trifluoropropan-2-yl]pyrimidine-5-sulfonamide] registered a melting point of 268 to 269 °C. The molecule also had an IC50 in data set [1] of 0.5 to 2 µM.
Regarding `Cc1cnc2c(C#N)c(-c3ccc(S(=O)(=O)N[C@@H](C)C(F)(F)F)cc3)n(C3CCC3)c2c1` [Cpd 216, 4-(3-cyano-1-cyclobutyl-6-methyl-1H-pyrrolo[3,2-b]pyridin-2-yl)-N-[(2S)-1,1,1-trifluoropropan-2-yl]benzenesulfonamide], the melting point lay in the range of 245 to 246 °C. In data set [1], this molecule displayed an IC50 of 0.5 to 2 µM.
For `Cc1cnc2c(C#N)c(-c3ccc(S(=O)(=O)N[C@H](C)C(F)(F)F)cc3)n(C3CCC3)c2c1` [Cpd 217, 4-(3-cyano-1-cyclobutyl-6-methyl-1H-pyrrolo[3,2-b]pyridin-2-yl)-N-[(2R)-1,1,1-trifluoropropan-2-yl]benzenesulfonamide], the melting point lay within 252 to 253 °C. In data set [1], this molecule displayed an IC50 of 2 to 5 µM.
Molecule `CC(C)Oc1cnc2c(c1)c(C#N)c(-c1ccc(S(=O)(=O)N[C@@H](C)C(F)(F)F)cn1)n2C1CCC1` [Cpd 218, 6-[3-cyano-1-cyclobutyl-5-(propan-2-yloxy)-1H-pyrrolo[2,3-b]pyridin-2-yl]-N-[(2S)-1,1,1-trifluoropropan-2-yl]pyridine-3-sulfonamide] displayed a melting point of 168 to 169 °C. Further, the IC50 in data set [1] was less than 0.5 µM.
In the same order, the values of `CCc1cc2c(C#N)c(-c3ccc(S(=O)(=O)N[C@@H](C)C(F)(F)F)cc3)n(C3CCC3)c2cn1` [Cpd 219, 4-(3-cyano-1-cyclobutyl-5-ethyl-1H-pyrrolo[2,3-c]pyridin-2-yl)-N-[(2S)-1,1,1-trifluoropropan-2-yl]benzenesulfonamide] are 200 to 203 °C and less than 0.5 µM.
The corresponding values for `CCc1cc2c(C#N)c(-c3ccc(NS(=O)(=O)C(C)C)cc3)n(C3CCC3)c2cn1` [Cpd 220, N-[4-(3-cyano-1-cyclobutyl-5-ethyl-1H-pyrrolo[2,3-c]pyridin-2-yl)phenyl]propane-2-sulfonamide] are 160 to 165 °C and less than 0.5 µM.

In general, IC50 refers to the midpoint of a concentration-inhibition curve. The term melting point denotes the temperature, or range, at which the solid turns liquid.

Values taken from patent US9593108B2, “Compounds and methods for antiviral treatment” (PTC Therapeutics, Inc., priority 2009, dated 2017).
